# Key:
# Type in all cases: functional
# Mus musculus [1] = assay: Induction of hypoferremia in wild type C57BL/6 mouse assessed as decrease in serum iron levels at 10 mg/kg, po measured after 3 hrs post dose; design: scale not given: the % may be the effect or the level left
# Mus musculus [2] = assay: Induction of hypoferremia in wild type C57BL/6 mouse assessed as decrease in serum iron levels at 30 mg/kg, po measured after 3 hrs post dose; design: scale not given: the % may be the effect or the level left
# Mus musculus [3] = assay: Induction of hypoferremia in wild type C57BL/6 mouse assessed as decrease in serum iron levels at 100 mg/kg, po measured after 3 hrs post dose; design: scale not given: the % may be the effect or the level left
# Rattus norvegicus [4] = assay: Prevention of iron absorption in anemic Wistar rat model of iron absorption assessed as inhibition of increase in serum iron at 3 mg/kg, po pre-dosed 1 hr before ferrous sulfate dosing and measured 3 hours after iron dosing
# Rattus norvegicus [5] = assay: Prevention of iron absorption in anemic Wistar rat model of iron absorption assessed as inhibition of increase in serum iron at 10 mg/kg, po pre-dosed 1 hr before ferrous sulfate dosing and measured 3 hours after iron dosing
# Rattus norvegicus [6] = assay: Prevention of iron absorption in anemic Wistar rat model of iron absorption assessed as inhibition of increase in serum iron at 30 mg/kg, po pre-dosed 1 hr before ferrous sulfate dosing and measured 3 hours after iron dosing
# Mus musculus [7] = assay: Prevention of hyperferremia in iron overloaded beta2-microglobulin deficient female mouse assessed as reduction in serum iron level at 20 mg/kg, po measured after 3 hrs relative to control; design: scale not given: the % may be the effect or the level left
# Mus musculus [8] = assay: Prevention of hyperferremia in iron overloaded beta2-microglobulin deficient male mouse assessed as reduction in serum iron level at 20 mg/kg, po measured after 3 hrs relative to control; design: scale not given: the % may be the effect or the level left
# Mus musculus [9] = assay: Prevention of hyperferremia in iron overloaded beta2-microglobulin deficient female mouse assessed as reduction in serum iron level at 60 mg/kg, po measured after 3 hrs relative to control; design: scale not given: the % may be the effect or the level left
# Mus musculus [10] = assay: Prevention of hyperferremia in iron overloaded beta2-microglobulin deficient male mouse assessed as reduction in serum iron level at 60 mg/kg, po measured after 3 hrs relative to control; design: scale not given: the % may be the effect or the level left
# Mus musculus [11] = assay: Decrease in serum iron in mouse model of transfusion-independent beta-thalassemia intermedia at 20 mg/kg, po BID for 20 days relative to control; design: scale not given: the % may be the effect or the level left
# Mus musculus [12] = assay: Decrease in serum iron in mouse model of transfusion-independent beta-thalassemia intermedia at 60 mg/kg, po BID for 20 days relative to control; design: scale not given: the % may be the effect or the level left
# Mus musculus [13] = assay: Disease modifying capacity in mouse model of transfusion-independent beta-thalassemia intermedia assessed as increase in blood erythrocyte counts at 20 mg/kg, po BID for 20 days relative to control
# Mus musculus [14] = assay: Disease modifying capacity in mouse model of transfusion-independent beta-thalassemia intermedia assessed as increase in blood erythrocyte counts at 60 mg/kg, po BID for 20 days relative to control
# Mus musculus [15] = assay: Disease modifying capacity in mouse model of transfusion-independent beta-thalassemia intermedia assessed as decrease in blood reticulocyte counts at 20 mg/kg, po BID for 20 days relative to control; design: scale not given: the % may be the effect or the level left
# Mus musculus [16] = assay: Disease modifying capacity in mouse model of transfusion-independent beta-thalassemia intermedia assessed as increase in hematocrit levels at 20 mg/kg, po BID for 20 days relative to control
# Mus musculus [17] = assay: Disease modifying capacity in mouse model of transfusion-independent beta-thalassemia intermedia assessed as increase in hematocrit levels at 60 mg/kg, po BID for 20 days relative to control
# Mus musculus [18] = assay: Disease modifying capacity in mouse model of transfusion-independent beta-thalassemia intermedia assessed as decrease in RDW level at 20 mg/kg, po BID for 20 days relative to control; design: scale not given: the % may be the effect or the level left
# Mus musculus [19] = assay: Disease modifying capacity in mouse model of transfusion-independent beta-thalassemia intermedia assessed as decrease in RDW level at 60 mg/kg, po BID for 20 days relative to control; design: scale not given: the % may be the effect or the level left
# Mus musculus [20] = assay: Disease modifying capacity in mouse model of transfusion-independent beta-thalassemia intermedia assessed as decrease in leukocyte counts level at 20 mg/kg, po BID for 20 days relative to control; design: scale not given: the % may be the effect or the level left
# Mus musculus [21] = assay: Disease modifying capacity in mouse model of transfusion-independent beta-thalassemia intermedia assessed as decrease in leukocyte counts level at 60 mg/kg, po BID for 20 days relative to control; design: scale not given: the % may be the effect or the level left
# Mus musculus [22] = assay: Disease modifying capacity in mouse model of transfusion-independent beta-thalassemia intermedia assessed as decrease in bone marrow ROS levels level at 20 mg/kg, po BID for 20 days relative to control; design: scale not given: the % may be the effect or the level left
# Mus musculus [23] = assay: Disease modifying capacity in mouse model of transfusion-independent beta-thalassemia intermedia assessed as decrease in bone marrow ROS levels level at 60 mg/kg, po BID for 20 days relative to control; design: scale not given: the % may be the effect or the level left
# Mus musculus [24] = assay: Disease modifying capacity in mouse model of transfusion-independent beta-thalassemia intermedia assessed as decrease in relative spleen weight at 20 mg/kg, po BID for 20 days relative to control; design: scale not given: the % may be the effect or the level left
# Mus musculus [25] = assay: Disease modifying capacity in mouse model of transfusion-independent beta-thalassemia intermedia assessed as decrease in relative spleen weight at 60 mg/kg, po BID for 20 days relative to control; design: scale not given: the % may be the effect or the level left
# Mus musculus [26] = assay: Disease modifying capacity in mouse model of transfusion-independent beta-thalassemia intermedia assessed as decrease in [58Fe] spleen iron content at 20 mg/kg, po BID for 20 days relative to control; design: scale not given: the % may be the effect or the level left
# Mus musculus [27] = assay: Disease modifying capacity in mouse model of transfusion-independent beta-thalassemia intermedia assessed as decrease in [58Fe] spleen iron content at 60 mg/kg, po BID for 20 days relative to control; design: scale not given: the % may be the effect or the level left
# Mus musculus [28] = assay: Disease modifying capacity in mouse model of transfusion-independent beta-thalassemia intermedia assessed as prevention of liver [58Fe] loading at 20 mg/kg, po BID for 20 days relative to control
# Mus musculus [29] = assay: Disease modifying capacity in mouse model of transfusion-independent beta-thalassemia intermedia assessed as prevention of liver [58Fe] loading at 60 mg/kg, po BID for 20 days relative to control
# Mus musculus [30] = assay: Disease modifying capacity in mouse model of transfusion-independent beta-thalassemia intermedia assessed as decrease in serum erythropoietin at 20 mg/kg, po BID for 20 days relative to control; design: scale not given: the % may be the effect or the level left
# Mus musculus [31] = assay: Disease modifying capacity in mouse model of transfusion-independent beta-thalassemia intermedia assessed as decrease in serum erythropoietin at 60 mg/kg, po BID for 20 days relative to control; design: scale not given: the % may be the effect or the level left
smiles,measurement,setting,value
O=C(NCc1ncccc1F)c1cnc(C2CN(CCc3nc4ccccc4[nH]3)C2)o1,Activity,Mus musculus [1],9%
same,Activity,Mus musculus [2],26%
same,Activity,Mus musculus [3],50%
same,inhibition in vivo at 3 mg/kg,Rattus norvegicus [4],-3%
same,inhibition in vivo at 10 mg/kg,Rattus norvegicus [5],29%
same,inhibition in vivo at 30 mg/kg,Rattus norvegicus [6],57%
same,Activity,Mus musculus [7],27%
same,Activity,Mus musculus [8],29%
same,Activity,Mus musculus [9],57%
same,Activity,Mus musculus [10],66%
same,Activity,Mus musculus [11],50%
same,Activity,Mus musculus [12],69%
same,Activity,Mus musculus [13],0%
same,Activity,Mus musculus [14],33%
same,Activity,Mus musculus [15],0%
same,Activity,Mus musculus [16],0%
same,Activity,Mus musculus [17],15%
same,Activity,Mus musculus [18],0%
same,Activity,Mus musculus [19],15%
same,Activity,Mus musculus [20],29%
same,Activity,Mus musculus [21],55%
same,Activity,Mus musculus [22],13%
same,Activity,Mus musculus [23],65%
same,Activity,Mus musculus [24],16%
same,Activity,Mus musculus [25],47%
same,Activity,Mus musculus [26],13%
same,Activity,Mus musculus [27],40%
same,Activity,Mus musculus [28],14%
same,Activity,Mus musculus [29],47%
same,Activity,Mus musculus [30],4%
same,Activity,Mus musculus [31],27%
